The values below come from patent US8232253B2, “Treatment of lung cancer” (Ramot at Tel-Aviv University Ltd., priority 2006, dated 2012).

The subject of assay [1] is A549 cells. Briefly: Cell growth by direct cell counting. It is filed as cell-based. Particulars: Homo sapiens, A549, 144 h, cells grown 6 days with FTS, read-out: FTS concentration giving a decrease of 50% in A549 cell growth. The procedure:
FTS was provided by Concordia Pharmaceuticals, Inc. (Ft. Lauderdale, Fla.). All cell lines were obtained from American Type Culture Collection (“ATCC”) (Manassas, Va.). A549 cells, non-small-cell lung carcinoma (CCL, ATCC) cells, were cultured in Kaighn's modification of Ham's F-12 medium containing 1.5 g/l sodium bicarbonate, 10% fetal calf serum (FCS), 100 U/ml penicillin, and 100 μg/ml streptomycin. HTB54 lung carcinoma cells were cultured in McCoy's 5A medium with 10% FCS, 100 U/ml penicillin, and 10 μg/ml streptomycin. […] Cells were treated with the indicated concentrations of FTS (Concordia Pharmaceuticals, Sunrise Fla.) or with 0.1% Me2SO4 (DMSO) (vehicle) 24 h after plating and were counted 5 days later. Dead cells were counted after addition of Hoechst 33258 dye (Sigma-Aldrich, St. Louis, Mo.); 1 μg/ml) to vehicle-treated control cultures or to cultures treated for 24 or 48 h with 75 μM FTS. Fluorescence images were collected 5 min after the dye was added.
To investigate the effect of FTS on lung cancer cell proliferation, we first incubated A549 cells that harbor the activated K-ras gene mutated at codon 12. […] The number of cells in the FTS-treated cultures was determined by direct counting of A549 cells grown for 6 days in the presence of FTS and was expressed as a percentage of the number recorded in the controls. […]

Assay [2] relates to A549 cells. Briefly: A549-cell-implanted nude mouse model, tumor growth. It is filed as in vivo, nude mice. How it is done:
Nude mice (6 weeks old) were housed in barrier facilities on a 12-h light/dark cycle. Food and water were supplied ad libitum. On day zero, A549 or HTB-58 cells (5×10^6 cells in 0.1 ml PBS) were implanted subcutaneously (s.c.) just above the right femoral joint. After 5 or 11 days the mice were separated randomly into control groups that had received only the vehicle and FTS-treated groups. Daily FTS treatments were administered either intraperitoneally (i.p.) or orally. Tumor volumes or weights were determined as described in Barkan, B., Starinsky, S., Friedman, E., Stein, R., Kloog, Y., Clin Cancer Res 12:5533-42 (2006). Gemcitabine treatment (36 mg/kg, i.p.) was administered every 4 days.
To determine whether FTS inhibited tumor growth in vivo, experiments were conducted using a nude mouse model. The lung cancer cells were implanted s.c. above the right femoral joint and the mice were then treated with FTS. In a first experiment, the effect of i.p. administration of FTS on tumor growth in A549 cells was assessed. Treatment was started 5 days after cell implantation, by which time the tumors were palpable. Tumor volumes were determined 24 days after implantation in two groups of mice (n=8) that had received daily i.p. administration of either the vehicle (control) or 10 mg/kg FTS.
In an additional set of experiments, the A549-cell-implanted nude mouse model was used to examine the effect of orally administered FTS on tumor growth. First, cells were implanted as described above and daily oral treatment with FTS (50 mg/kg; n=6) or vehicle (n=5) was started either 11 days (FIG. 14C) or 6 days (FIG. 14D) after implantation. […] Next, the effects of orally administered FTS, alone or in combination with gemcitabine, on A549-cell tumor growth was examined (FIG. 14D). Six days after cell implantation, mice were divided into four groups (n=8 per group) and treated orally with vehicle alone (control), FTS alone (60 mg/kg), vehicle and gemcitabine (36 mg/kg, i.p. every 4 days), or FTS and gemcitabine. Treatments with gemcitabine began 1 week after FTS treatment was started.

The subject of assay [3] is human NSCLC cell lines H1734, H2030, H1975, H3255. Briefly: Alamar blue viable cell assay in NSCLC cell lines. The assay is classed as cell-based. The following applies: increasing FTS concentrations, 96 hours; H1734, H2030 (KRAS mutations), H1975, H3255 (EGFR mutations). How it is done: To determine whether FTS sensitized other human NSCLC cell lines to cell death, experiments were conducted on cell lines H1734 and H2030 (KRAS mutations) and H1975 and H3255 (EGFR mutations). The four cell lines were grown in increasing concentrations of FTS (dissolved in DMSO). After 96 hours, viable cells were quantified using an Alamar blue assay. Results are the mean±standard error of three independent experiments, in which there were 3 replicates of each condition, as shown in FIG. 15.
Background: Resazurin is reduced to fluorescent resorufin, in cell work by metabolically active cells.

The mark [4] stands for this setting: 50 mg/kg FTS oral daily from day 11, after 16 days of treatment (FIG. 14C).
The mark [5] stands for this setting: 60 mg/kg FTS oral alone, from day 6 (FIG. 14D).

Take `CC(C)=CCC/C(C)=C/CC/C(C)=C/CSc1ccccc1C(=O)O` [FTS, S-farnesylthiosalicylic acid]: in the assay on A549 cells [1], the IC50 amounted to 40 µM. In the assay on A549 cells [2] (10 mg/kg FTS i.p. daily from day 5, 24 days after implantation), the “inhibition of tumor growth relative to control (tumor volume)” value is reported as 53.8%. Besides, the “inhibition in tumor growth” value with A549 cells [2] (setting [4]) was 53.7±19.1%; in the assay with A549 cells [2] (setting [5]) it was 46.2±16.3%. Moreover, the “tumor weight (mean±SD)” value worked out at 0.4 ± 0.19 g with A549 cells [2] (setting [4]) and 0.49 ± 0.15 g with A549 cells [2] (setting [5]). In addition, the “sensitization of NSCLC cell lines to cell death” value in assay [3] is given as “sensitized”.
